These results are taken from ChEMBL document CHEMBL4813943, “Hybrids of Small-Molecule CD4 Mimics with Polyethylene Glycol Units as HIV Entry Inhibitors” (J Med Chem, 2021).

Series [1] in a line: Cytotoxicity against human TZM-bl cells assessed as reduction in cell viability by Cell Titer-Glo assay. Format: cell-based.
Series [2] is described as follows: Initial drug concentration in rhesus monkey blood at 24 mg/kg, iv measured upto 6 hrs by HPLC analysis. The class given is ADME, organism-based, Macaca mulatta.
Series [3] in a line: Volume of distribution in rhesus monkey at 24 mg/kg, iv measured upto 6 hrs by HPLC analysis. The class given is ADME, organism-based, Macaca mulatta. As to conditions: in vivo.
The nature of series [4]: Acute toxicity in rhesus monkey assessed as effect on blood oxygen levels at 24 mg/kg, iv measured after 24 hrs. The class given is organism-based, Macaca mulatta. As to conditions: in vivo.
Series [5] in a line: Acute toxicity in rhesus monkey assessed as animal survival at 24 mg/kg, iv measured after 24 hrs. Format: organism-based, Macaca mulatta. As to conditions: in vivo.
A short description of series [6]: Acute toxicity in rhesus monkey assessed as increase in pulse rate at 24 mg/kg, iv measured within 15 mins. Format: organism-based, Macaca mulatta. As to conditions: in vivo, 0.25 h.
Series [7] is described as follows: Acute toxicity in rhesus monkey assessed as decrease in blood oxygen level at 24 mg/kg, iv measured within 15 mins. Format: organism-based, Macaca mulatta. As to conditions: in vivo, 0.25 h.
Series [8] is described as follows: Acute toxicity in iv dosed rhesus monkey assessed as maximum tolerated dose. Format: organism-based, Macaca mulatta. As to conditions: in vivo.
A short description of series [9]: Acute toxicity in rhesus monkey assessed as effect on pulse rate at 24 mg/kg, iv measured after 24 hrs. The class given is organism-based, Macaca mulatta. As to conditions: in vivo.
Series [10] can be described thus: Half life in rhesus monkey at 24 mg/kg, iv measured upto 6 hrs by HPLC analysis. The class given is ADME, organism-based, Macaca mulatta. As to conditions: in vivo.
The subject of series [11] is Simian immunodeficiency virus. The series is described as follows: Potentiation of KD-247-induced viral neutralizing activity against SHIV KS2661 infected in human TZM-bl cells assessed as fold reduction in KD-247 IC50 for viral neutralization at 10 uM measured after 48 hrs by luciferase assay relative to KD-247. Format: functional.
The nature of series [12]: Stability of the compound assessed as drug degradation at 10 umol measured after 5 mins by HPLC analysis. As to conditions: at 10 µmol, read-out: Drug degradation. The class given is physicochemical.
Series [13] is described as follows: Stability of the compound assessed as drug degradation at 10 umol measured after 25 mins by HPLC analysis. Format: physicochemical. As to conditions: at 10 µmol, read-out: Drug degradation.
The nature of series [14]: Stability of the compound assessed as drug degradation at 10 umol measured after 1 mins by HPLC analysis. As to conditions: at 10 µmol, read-out: Drug degradation. The class given is physicochemical.
Series [15] has as its target Envelope glycoprotein gp160 (Human immunodeficiency virus 1) (UniProt Q6QLK5). The experiment in a line: Inhibition of HIV1 KP-5mvcR gp120 interaction with CD4 in human TZM-bl cells assessed as decrease in viral entry at 0.1 uM by […] assay relative to control. Format: cell-based.
A short description of series [16]: Half life in rhesus monkey at 9 mg, IM measured upto 48.1 hrs by HPLC analysis. The class given is ADME, Macaca mulatta. As to conditions: in vivo.
Series [17] is described as follows: Volume of distribution in rhesus monkey at 33.2 mg, IV measured upto 72 hrs by HPLC analysis. The class given is ADME, Macaca mulatta. As to conditions: in vivo.
A short description of series [18]: Half life in rhesus monkey at 36 mg, IM measured upto 48.1 hrs by HPLC analysis. Format: ADME, Macaca mulatta. As to conditions: in vivo.
Series [19] in a line: Volume of distribution in rhesus monkey at 18 mg, IM measured upto 48.1 hrs by HPLC analysis. As to conditions: in vivo. Format: ADME, Macaca mulatta.
Series [20] can be described thus: Cmax in rhesus monkey at 33.2 mg, iv measured upto 72 hrs by HPLC analysis. Format: ADME, organism-based, Macaca mulatta. More on the design: route intravenous, dose 33.2 mg, time <=72. As to conditions: in vivo.
Series [21] is described as follows: Half life in rhesus monkey at 33.2 mg, iv measured upto 72 hrs by HPLC analysis. As to conditions: in vivo. Format: ADME, organism-based, Macaca mulatta.
Series [22] in a line: Cmax in rhesus monkey at 36 mg, IM measured upto 48.1 hrs by HPLC analysis. Format: ADME, Macaca mulatta. More on the design: route intramuscular, dose 36 mg, time <=48.1. As to conditions: in vivo.
Series [23] in a line: Cmax in rhesus monkey at 9 mg, IM measured upto 48.1 hrs by HPLC analysis. Format: ADME, Macaca mulatta. Set-up: route intramuscular, dose 9 mg, time <=48.1. As to conditions: in vivo.
Series [24] can be described thus: Volume of distribution in rhesus monkey at 9 mg, IM measured upto 48.1 hrs by HPLC analysis. Format: ADME, Macaca mulatta. As to conditions: in vivo.
Series [25] in a line: Toxicity in rhesus monkey assessed as increase in pulse rate at 33.2 mg, iv measured within 25 mins. As to conditions: in vivo. Format: organism-based, Macaca mulatta.
Series [26] is described as follows: Volume of distribution in rhesus monkey at 36 mg, IM measured upto 48.1 hrs by HPLC analysis. Format: ADME, Macaca mulatta. As to conditions: in vivo.
The nature of series [27]: Half life in rhesus monkey at 18 mg, IM measured upto 48.1 hrs by HPLC analysis. The class given is ADME, Macaca mulatta. As to conditions: in vivo.
The nature of series [28]: Cmax in rhesus monkey at 18 mg, IM measured upto 48.1 hrs by HPLC analysis. Format: ADME, Macaca mulatta. More on the design: route intramuscular, dose 18 mg, time <=48.1. As to conditions: in vivo.
A short description of series [29]: Toxicity in rhesus monkey assessed as effect on body motion at 33.2 mg, iv measured within 25 mins. Format: organism-based, Macaca mulatta. As to conditions: in vivo.
A short description of series [30]: Half life of the compound by HPLC analysis. The class given is physicochemical.

Each structure is given as a SMILES string.

Chain of Envelope glycoprotein gp160 (Human immunodeficiency virus 1) (Q6QLK5 1-814): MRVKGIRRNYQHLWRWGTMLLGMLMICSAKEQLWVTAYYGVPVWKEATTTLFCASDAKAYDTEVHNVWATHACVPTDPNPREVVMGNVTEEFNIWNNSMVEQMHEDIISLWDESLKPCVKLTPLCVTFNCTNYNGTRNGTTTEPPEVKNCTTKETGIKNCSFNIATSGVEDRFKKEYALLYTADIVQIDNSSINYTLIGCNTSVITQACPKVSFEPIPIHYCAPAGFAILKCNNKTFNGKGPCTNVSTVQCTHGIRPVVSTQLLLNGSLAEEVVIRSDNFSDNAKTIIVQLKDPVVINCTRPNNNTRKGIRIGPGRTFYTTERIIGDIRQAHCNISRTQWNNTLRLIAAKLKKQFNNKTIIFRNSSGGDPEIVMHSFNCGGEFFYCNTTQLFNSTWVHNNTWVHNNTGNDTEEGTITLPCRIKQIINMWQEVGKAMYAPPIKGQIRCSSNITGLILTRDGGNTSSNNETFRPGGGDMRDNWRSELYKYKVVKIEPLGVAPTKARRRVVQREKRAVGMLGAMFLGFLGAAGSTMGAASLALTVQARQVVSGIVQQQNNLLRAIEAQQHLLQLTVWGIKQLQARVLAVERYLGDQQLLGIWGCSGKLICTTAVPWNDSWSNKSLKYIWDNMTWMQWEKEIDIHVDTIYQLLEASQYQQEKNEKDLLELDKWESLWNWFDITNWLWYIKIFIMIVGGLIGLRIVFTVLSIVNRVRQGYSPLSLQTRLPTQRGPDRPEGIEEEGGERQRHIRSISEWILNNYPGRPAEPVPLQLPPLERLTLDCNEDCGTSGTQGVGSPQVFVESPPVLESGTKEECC

The term CC50 denotes the concentration giving 50% cytotoxicity. For the compound `COCCOCCOCCOCCOCCNC(=O)CCC(=O)OC(CCCNS(=O)(=O)c1ccc([N+](=O)[O-])cc1)C(=O)NCCN1CCC(NC(=O)C(=O)Nc2ccc(Cl)cc2)CC12CCCCC2` (centres undefined), in [1], the CC50 was determined as 174 µM.
As to `N=C(N)NCCCCC(=O)NCCN1CCC(NC(=O)C(=O)Nc2ccc(Cl)cc2)CC12CCCCC2` (centres undefined), the CC50 in [1] is 65 µM.
Turning to `COCCOCCOCCOCCOCCNC(=O)CCC(=O)N[C@@H](CCCNC(=N)N)C(=O)NCCN1CCC(NC(=O)C(=O)Nc2ccc(Cl)cc2)CC12CCCCC2` (some centres undefined), the CC50 in series [1] was greater than 100 µM.
The same measure, in the same setting: the value for `CCCCCCCCCCCCCCCCNC(=O)CCC(=O)OC(CCCNS(=O)(=O)c1ccc([N+](=O)[O-])cc1)C(=O)NCCN1CCC(NC(=O)C(=O)Nc2ccc(Cl)cc2)CC12CCCCC2` (centres undefined) was greater than 300 µM.
As usually defined, the MTD is the largest dose that counted as tolerated. A word on the half-life: it is the time in which the quantity being followed falls by half. `N=C(N)NCCCCC(=O)NCCN1CCC(NC(=O)C(=O)Nc2ccc(Cl)cc2)CC12CCCCC2.O=C(O)C(F)(F)F.O=C(O)C(F)(F)F` (centres undefined): the C0 at 6 h in series [2] was 23.3 µM. The compound further had a Vd in [3] of 10.8 L. Also, the Activity result in series [4] is given as “Non-Toxic”; in series [5], “Non-Toxic”; in series [6] it was “Toxic”; in series [7], “Toxic”; in series [9], “Non-Toxic”. In addition, in series [8], the MTD came to 24 mg/kg. This compound had a half-life in series [10] of 31 min.
Take `N=C(N)NCCCC[C@H](NC(=N)N)C(=O)NCCN1CCC(NC(=O)C(=O)Nc2ccc(Cl)cc2)CC12CCCCC2` (some centres undefined): the CC50 in series [1] stood at 46 µM.
`N=C(N)NCCCCCCCC(=O)NCCCC[C@H](NC(=N)N)C(=O)NCCN1CCC(NC(=O)C(=O)Nc2ccc(Cl)cc2)CC12CCCCC2` (some centres undefined): the CC50 in series [1] came to 44 µM.
For `COCCOCCOCCOCCOCCOCCOCCOCCOCCOCCOCCOCCNC(=O)CCC(=O)N[C@@H](CCCNC(=N)N)C(=O)NCCN1CCC(NC(=O)C(=O)Nc2ccc(Cl)cc2)CC12CCCCC2` (some centres undefined) [listing 1 of 2 here], the “fold change (FC)” value in series [11] was 20. In addition, the CC50 in series [1] was greater than 100 µM.
Consider `COCCOCCOCCOCCOCCNC(=O)CCC(=O)OC(CCCNC(=N)N)C(=O)NCCN1CCC(NC(=O)C(=O)Nc2ccc(Cl)cc2)CC12CCCCC2` (centres undefined) [listing 1 of 2 here], for which the degraded at 5 min, 10 umol in [12] turned out to be 0%. Also, the degraded at 25 min, 10 umol in [13] was 20%. Also, the degraded at 1 min, 10 umol in series [14] is 0%.
As usually defined, the inhibition is the percentage by which the read-out fell short of the control. Consider `COCCOCCOCCOCCOCCOCCOCCOCCOCCOCCOCCOCCOCCOCCOCCOCCOCCOCCOCCOCCOCCOCCOCCOCCNC(=O)CCC(=O)N[C@@H](CCCNC(=N)N)C(=O)NCCN1CCC(NC(=O)C(=O)Nc2ccc(Cl)cc2)CC12CCCCC2` (some centres undefined), for which the CC50 in [1] turned out to be 40 µM. The inhibition in series [15] came out at 65%.
On to `CCCCCCCCCCCCCCCCNC(=O)CCC(=O)OC(CCCNC(=N)N)C(=O)NCCN1CCC(NC(=O)C(=O)Nc2ccc(Cl)cc2)CC12CCCCC2` (centres undefined), for which the CC50 in series [1] is 17 µM.
By Cmax is commonly meant the maximum level reached in the sampled fluid or tissue. `COCCOCCOCCOCCOCCOCCOCCOCCOCCOCCOCCOCCNC(=O)CCC(=O)N[C@@H](CCCNC(=N)N)C(=O)NCCN1CCC(NC(=O)C(=O)Nc2ccc(Cl)cc2)CC12CCCCC2.O=C(O)C(F)(F)F.O=C(O)C(F)(F)F` (some centres undefined): the results for the half-life in series [16], in series [18] and in series [27] were 47.6 min, 86.4 min and 58.9 min, respectively. Besides, the Vd amounted to 592 mL in series [17], 215 mL in series [19], 114 mL in series [24] and 200 mL in series [26]. Also, the Cmax was 39.5 µM in series [20], 128 µM in series [22], 56.4 µM in series [23] and 59.4 µM in series [28]. In addition, in [21], the t1/2 worked out at 107.4 min. Moreover, the Activity entry in [25] and in [29] was “Toxic” throughout. For the same compound, in [8], the MTD stood at 3.78 mg/kg.
Take `N=C(N)NCC(=O)NCCCC[C@H](NC(=N)N)C(=O)NCCN1CCC(NC(=O)C(=O)Nc2ccc(Cl)cc2)CC12CCCCC2` (some centres undefined): the CC50 in [1] was 42 µM.
`COCCOCCOCCOCCOCCNC(=O)CCC(=O)OC(CCCNC(=N)N)C(=O)NCCN1CCC(NC(=O)C(=O)Nc2ccc(Cl)cc2)CC12CCCCC2` (centres undefined) [listing 2 of 2 here]: in series [30], the half-life is 126 min. Moreover, the CC50 in series [1] is 109 µM.
On to `CCCCCCCCCCCCCCCCNC(=O)CCC(=O)OC(CCCN)C(=O)NCCN1CCC(NC(=O)C(=O)Nc2ccc(Cl)cc2)CC12CCCCC2` (centres undefined), for which the CC50 in [1] worked out at 5.7 µM.
`CC1(C)CC(NC(=O)C(=O)Nc2ccc(Cl)cc2)CC(C)(C)N1`: the CC50 in [1] stood at 132 µM.
With `COCCOCCOCCOCCOCCOCCOCCOCCOCCOCCOCCOCCNC(=O)CCC(=O)N[C@@H](CCCNC(=N)N)C(=O)NCCN1CCC(NC(=O)C(=O)Nc2ccc(Cl)cc2)CC12CCCCC2` (some centres undefined) [listing 2 of 2 here], the inhibition in [15] stood at 50%.
With `COCCOCCOCCOCCOCCNC(=O)CCC(=O)OC(CCCN)C(=O)NCCN1CCC(NC(=O)C(=O)Nc2ccc(Cl)cc2)CC12CCCCC2` (centres undefined), the 50% cytotoxic concentration (CC50) in [1] was 81 µM.
Regarding `N=C(N)NCCCCCCCCCCC(=O)NCCN1CCC(NC(=O)C(=O)Nc2ccc(Cl)cc2)CC12CCCCC2` (centres undefined), the CC50 in series [1] was found to be 1.1 µM.
Turning to `N=C(N)NCCCCCCCC(=O)NCCN1CCC(NC(=O)C(=O)Nc2ccc(Cl)cc2)CC12CCCCC2` (centres undefined), the CC50 in series [1] was greater than 300 µM.
On to `N=C(N)NCCCCCCCCCCC(=O)NCCCC[C@H](NC(=N)N)C(=O)NCCN1CCC(NC(=O)C(=O)Nc2ccc(Cl)cc2)CC12CCCCC2` (some centres undefined), for which the half-maximal cytotoxic concentration (CC50) in series [1] is 15 µM.
For the compound `N=C(N)NCCCCC(=O)NCCCC[C@H](NC(=N)N)C(=O)NCCN1CCC(NC(=O)C(=O)Nc2ccc(Cl)cc2)CC12CCCCC2` (some centres undefined), in series [1], the CC50 amounted to 62 µM.
